Measurements as given in PMC9220351, “Evaluation of a Conformationally Constrained Indole Carboxamide as a Potential Efflux Pump Inhibitor in Pseudomonas aeruginosa” (Antibiotics, 2022).
In brackets after ≈: the same amount, converted by molar mass.

Key:
[1] = biological target: CYP2C19 (Homo sapiens, UniProt P33261); experiment: CYP inhibition; format: in vitro ADME; details: read-out: CYP Inhibition IC50, CYP 2C19
[2] = system: P. aeruginosa DA7232; experiment: Levofloxacin accumulation assay; format: cell-based, Pseudomonas aeruginosa; details: levofloxacin 64 μg/mL; compound 1/2, 1/4th, 1/8th MIC
Protocol: Similar assays have been described elsewhere with the same purpose.
The treated bacterial culture samples were incubated on ice for 15 min, centrifuged, washed with 1X PBS (pH 7.4), and then resuspended in 1 mL of glycine-HCl buffer (pH 3.0) overnight, followed by centrifugation. The fluorescence of 100 μL of supernatant was read at 490 nm following a 355 nm excitation in a SpectraMax iD5 spectrophotometer (Molecular Devices, San Jose, CA, USA).

[3] = Metabolic stability in human liver microsomes; format: in vitro ADME
Protocol: The metabolic stability of TXA09155 was determined in human, mouse, and rat liver microsomes by Eurofins (St. Charles, MO, USA) using the substrate depletion method (in vitro half-life (t1/2) method). Quantification was performed by LC/MS/MS. In this assay, depletion of the parent compound is measured over time to determine the compound’s in vitro t1/2 and hepatic extraction ratios (ER). This is used to predict metabolic clearance. […] This assay utilizes electrophysiology measurements on the electric current passing through the hERG channel heterologously expressed in a stable CHO cell line. Channels are open by a hERG-specific voltage protocol, and the compound effects are directly characterized by their block of the hERG current. The assay is performed on an automated platform, Q-Patch.

[4] = biological target: CYP2C9 (Homo sapiens, UniProt P11712); experiment: CYP inhibition; format: in vitro ADME; details: read-out: CYP Inhibition IC50, CYP 2C9
Chain of CYP2C9 (P11712 whole entry): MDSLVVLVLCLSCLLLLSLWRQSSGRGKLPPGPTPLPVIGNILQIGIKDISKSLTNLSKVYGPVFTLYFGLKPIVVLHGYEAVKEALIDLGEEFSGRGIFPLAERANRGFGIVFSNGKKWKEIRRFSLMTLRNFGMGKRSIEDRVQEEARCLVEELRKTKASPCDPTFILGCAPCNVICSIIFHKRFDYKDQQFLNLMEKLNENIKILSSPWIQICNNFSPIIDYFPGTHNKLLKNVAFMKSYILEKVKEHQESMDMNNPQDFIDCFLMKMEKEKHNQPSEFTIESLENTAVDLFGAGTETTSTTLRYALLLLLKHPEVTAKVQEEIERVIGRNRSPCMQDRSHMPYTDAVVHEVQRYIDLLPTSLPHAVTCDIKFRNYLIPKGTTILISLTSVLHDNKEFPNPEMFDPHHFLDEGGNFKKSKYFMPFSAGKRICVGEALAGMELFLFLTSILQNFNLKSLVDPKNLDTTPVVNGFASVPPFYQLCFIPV

[5] = system: human RBCs; experiment: Hemolytic activity; format: cell-based; details: 12.5 to 100 µM
[6] = system: P. aeruginosa ATCC 27853 inner membrane; experiment: Flow cytometry propidium iodide (PI) assay for inner membrane permeabilization; format: cell-based, Pseudomonas aeruginosa; details: no inner membrane permeabilization below this concentration
Protocol: Membrane disruption was assayed with two approaches: (1) a flow cytometry-based propidium iodide (PI) assay to monitor inner membrane permeabilization, and (2) a nitrocefin (NCF) assay to monitor outer membrane permeabilization. NCF is a chromogenic cephalosporin that changes from yellow to red when the amide bond in the β-lactam ring is hydrolyzed by a β-lactamase. The rate of hydrolysis in intact cells is slow, as it is limited by the rate of diffusion of periplasmic β-lactamase across the outer membrane. However, in the presence of an agent that permeabilizes the outer membrane, the rate of hydrolysis will increase [33]. […] Polymyxin B was used as a positive control (Figure 2B). […] Cells whose membranes remain intact exclude PI and remain non-fluorescent, while cells with compromised membrane integrity allow PI to enter and bind to DNA, resulting in fluorescence.
A flow cytometry assay used for assessing potential inner membranes permeabilization of P. aeruginosa bacterial cells to PI was conducted using the LIVE/DEAD BacLight Kit from Invitrogen (Waltham, MA, USA). […] Intracellular PI fluorescence was detected by flow cytometry using a CytoFlex (Beckman Coulter Inc., Brea, CA, USA). […] For each sample, the fluorescence of 10,000 individual bacterial cells was measured, and the percent of cells that stained positive for PI fluorescence was calculated.

[7] = biological target: CYP1A2 (Homo sapiens, UniProt P05177); experiment: CYP inhibition; format: in vitro ADME; details: read-out: CYP Inhibition IC50, CYP 1A2
Chain of CYP1A2 (P05177 whole entry): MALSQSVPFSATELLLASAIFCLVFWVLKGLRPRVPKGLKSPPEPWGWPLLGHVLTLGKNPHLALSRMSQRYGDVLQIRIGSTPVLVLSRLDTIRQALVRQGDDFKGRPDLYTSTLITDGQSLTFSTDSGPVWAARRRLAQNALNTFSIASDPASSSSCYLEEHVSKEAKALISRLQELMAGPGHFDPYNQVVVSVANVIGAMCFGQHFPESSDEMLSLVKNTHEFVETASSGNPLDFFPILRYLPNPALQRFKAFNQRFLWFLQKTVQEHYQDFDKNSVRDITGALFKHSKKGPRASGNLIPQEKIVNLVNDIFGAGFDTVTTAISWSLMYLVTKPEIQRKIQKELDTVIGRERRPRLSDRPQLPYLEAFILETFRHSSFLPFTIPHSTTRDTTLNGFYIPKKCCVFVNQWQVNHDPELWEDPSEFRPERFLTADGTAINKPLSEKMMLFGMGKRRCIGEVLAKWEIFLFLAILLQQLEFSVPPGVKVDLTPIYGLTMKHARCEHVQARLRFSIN

[8] = system: P. aeruginosa ATCC 27853 inner membrane potential; experiment: DiOC2 (3) membrane polarization assay; format: cell-based, Pseudomonas aeruginosa; details: 20 to 0.01 μM
Protocol: RND efflux pumps couple the influx of protons from the proton gradient across the inner membrane to the efflux of drugs and other molecules. […] The effect of TXA09155 on the proton gradient of P. aeruginosa was assessed with a fluorescence-based 3,3′-diethyloxacarbocyanine iodide [DiOC2 (3)] assay that was developed to measure membrane potential changes in Gram-negative bacteria. DiOC2 (3) is a positively charged fluorescent dye that accumulates within cells in a charge-dependent manner, shifting its fluorescence spectrum from green to red at high concentrations due to concentration-dependent dye stacking. […] Azithromycin and CCCP were used as […] controls, respectively.
P. aeruginosa membrane polarization assays were conducted as described previously using strain ATCC 27853. […] DiOC2 (3) fluorescence was recorded in a microplate reader using 450 nm excitation and 670 nm emission (for red fluorescence). Background correction for each concentration of each compound was obtained from reading the fluorescence of compounds in the resuspension buffer without cells. After background correction, fluorescence was normalized to that of the vehicle (DMSO) only. After a 30 min incubation at 37 °C, DiOC2 (3) fluorescence was recorded using a SpectraMax iD5 spectrophotometer (Molecular Devices, San Jose, CA, USA) following excitation at 450 nm. […]

[9] = biological target: CYP2D6 (Homo sapiens, UniProt P10635); experiment: CYP inhibition; format: in vitro ADME; details: read-out: CYP Inhibition IC50, CYP 2D6
Chain of CYP2D6 (P10635 whole entry): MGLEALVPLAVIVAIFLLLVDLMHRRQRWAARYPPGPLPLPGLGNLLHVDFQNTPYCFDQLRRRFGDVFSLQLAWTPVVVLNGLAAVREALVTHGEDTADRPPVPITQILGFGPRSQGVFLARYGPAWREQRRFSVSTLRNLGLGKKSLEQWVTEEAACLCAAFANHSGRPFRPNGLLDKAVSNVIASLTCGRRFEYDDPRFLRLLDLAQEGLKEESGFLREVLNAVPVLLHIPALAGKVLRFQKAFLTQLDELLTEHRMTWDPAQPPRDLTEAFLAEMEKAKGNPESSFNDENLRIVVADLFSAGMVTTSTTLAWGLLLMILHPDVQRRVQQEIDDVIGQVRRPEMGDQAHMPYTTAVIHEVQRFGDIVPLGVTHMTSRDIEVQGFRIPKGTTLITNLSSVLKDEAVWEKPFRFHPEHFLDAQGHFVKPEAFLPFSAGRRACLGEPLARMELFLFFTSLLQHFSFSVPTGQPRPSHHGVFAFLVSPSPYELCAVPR

[10] = system: P. aeruginosa K1455 (mexAB-oprM overexpressed); experiment: microbe, parasite or virus in culture; format: cell-based, Pseudomonas aeruginosa; details: Pseudomonas aeruginosa, read-out: MICs K1455 (↑mexAB-oprM)
Description: (§1) P. aeruginosa ATCC 27853 was obtained from the American Type Culture Collection (ATCC; Manassas, VA, USA). P. aeruginosa multidrug-resistant isolates were obtained from the CDC and FDA Antibiotic Resistance Isolate Bank (Atlanta, GA, USA). P. aeruginosa DA7232 (gyrA-T83I, parC-S80L) was a kind gift from Prof. Dan I. Andersson, Uppsala University, Uppsala, Sweden, and has been characterized elsewhere. P. aeruginosa strains K767 (WT), K1455 (mexAB-oprM overexpressed), K2415 (mexXY-oprM overexpressed), and K3698 (oprM∆) were obtained from Prof. Keith Poole, Queen’s University, Kingston, Ontario, Canada and have been characterized elsewhere. Bacterial cells were grown in cation-adjusted Mueller Hinton (CAMH) media, brain heart infusion broth (BHI), or tryptic soy agar (TSA) plates were all obtained from Becton, Dickinson, and Company (BD; Franklin Lakes, NJ, USA). Aztreonam, ceftazidime, moxifloxacin, levofloxacin, minocycline, tigecycline, chloramphenicol, nitrocefin, and imipenem were purchased from TOKU-E (Bellingham, WA, USA). Azithromycin was purchased from Tokyo Chemical Industry (Portland, OR, USA). Cotrimoxazole was purchased from Toronto Research Chemicals (Toronto, ON, Canada). Doxycycline and polymyxin B were purchased from Sigma-Aldrich (St. Louis, MO, USA). Ethidium bromide (EtBr) and glucose were purchased from VWR (Radnor, PA, USA). MC-04,124 and TXA01182 were synthesized at TAXIS Pharmaceuticals. Carbonyl cyanide 3-chlorophenylhydrazone (CCCP) was purchased from Enzo Life Sciences (Farmingdale, NY, USA). DiOC2 (3) and propidium iodide were obtained from Thermo Fisher Scientific (Waltham, MA, USA).
(§2) MIC assays were performed as described previously.

[11] = system: P. aeruginosa K2415 (mexXY-oprM overexpressed); experiment: MIC / potentiation assay, strain K2415; format: cell-based, Pseudomonas aeruginosa; details: Pseudomonas aeruginosa, read-out: MICs K2415 (↑mexXY-oprM)
Description: as §1, §2

Chain of CYP2C19 (P33261 whole entry): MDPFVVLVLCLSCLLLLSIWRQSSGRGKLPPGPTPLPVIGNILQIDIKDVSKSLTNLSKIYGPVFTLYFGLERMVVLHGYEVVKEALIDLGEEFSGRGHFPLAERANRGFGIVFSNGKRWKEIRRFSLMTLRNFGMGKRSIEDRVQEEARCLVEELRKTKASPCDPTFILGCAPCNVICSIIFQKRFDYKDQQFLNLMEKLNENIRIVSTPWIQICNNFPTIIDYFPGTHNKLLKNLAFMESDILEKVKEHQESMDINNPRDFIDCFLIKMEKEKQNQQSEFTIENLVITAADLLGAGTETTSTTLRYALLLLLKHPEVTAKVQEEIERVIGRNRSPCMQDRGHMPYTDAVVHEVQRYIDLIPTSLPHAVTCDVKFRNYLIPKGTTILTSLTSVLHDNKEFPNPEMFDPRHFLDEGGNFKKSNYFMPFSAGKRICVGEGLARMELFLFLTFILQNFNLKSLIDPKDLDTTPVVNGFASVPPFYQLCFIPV

Cl.NC[C@@H]1CN[C@H](CNC(=O)c2cc3ccc(-c4ccc(F)cc4)cc3[nH]2)C1 [TXA09155, N-(((2S,4R)-4-(aminomethyl)pyrrolidine-2-yl)methyl)-6-(4-fluorophenyl)-1H-indole-2-carboxamide hydrochloride salt]
IC50 [1]: > 100 µM
accumulation of levofloxacin inside P. aeruginosa [2]: concentration-dependent manner
HLM and RLM Metabolic Stability (HLM) [3]: >60%
IC50 [4]: > 100 µM
hemolytic activity [5]: did not display hemolytic activity
concentrations without inner membrane disruption (basal PI fluorescence) [6]: < 50 µg/mL
IC50 [7]: > 100 µM
membrane depolarization [8]: did not lead to membrane depolarization
IC50 [9]: 67.2 µM

C[C@H]1COc2c(N3CCN(C)CC3)c(F)cc3c(=O)c(C(=O)O)cn1c23 [Levofloxacin]
MIC [10]: 4 µg/mL (≈ 11.1 µM)
MIC [11]: 4 µg/mL
